Bounds are passed on as bounds.

The target of one experiment is T1, HTR3A (5-HT3A) (Homo sapiens, UniProt P46098).
T1 sequence (P46098 24-478): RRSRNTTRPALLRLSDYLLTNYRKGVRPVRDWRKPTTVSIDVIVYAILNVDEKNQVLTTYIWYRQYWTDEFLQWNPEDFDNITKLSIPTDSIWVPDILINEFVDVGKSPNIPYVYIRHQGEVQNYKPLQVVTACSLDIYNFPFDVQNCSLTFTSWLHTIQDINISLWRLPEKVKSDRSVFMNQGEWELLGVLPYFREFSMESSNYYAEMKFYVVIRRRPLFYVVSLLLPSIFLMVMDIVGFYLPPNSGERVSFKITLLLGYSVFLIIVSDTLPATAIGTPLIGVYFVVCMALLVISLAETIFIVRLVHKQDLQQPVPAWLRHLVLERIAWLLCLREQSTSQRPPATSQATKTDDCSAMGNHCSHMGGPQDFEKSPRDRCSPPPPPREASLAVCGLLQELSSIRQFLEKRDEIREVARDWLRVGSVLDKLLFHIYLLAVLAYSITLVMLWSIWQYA
The experiment is described as follows: cell-based.
Details: not given
With `CN(C)CCc1c[nH]c2cccc(OC(=O)OCc3ccccc3)c12` [B(II)], the EC50 – broadly, the midpoint of the concentration-response curve – was above 100 µM.
The same measure, in the same setting: to `CN(C)CCc1c[nH]c2cccc(OP(=O)(Oc3ccccc3)Oc3ccccc3)c12` [F(I)] belongs above 100 µM.

The experiment is the same for the next values; noted with them: HTR3A, ion channel, OP (opener); read-out: EC50.
`CN(C)Cc1c[nH]c2cccc(O[Si](C)(C)C(C)(C)C)c12` [A(IV)]: the EC50 was above 100 µM.
Same read-out and setting: to `CC(C)[Si](Oc1cccc2[nH]cc(CN(C)C)c12)(C(C)C)C(C)C` [A(V)] belongs above 100 µM; to `CN(C)CCc1c[nH]c2cccc(OC(=O)OCC3CC3)c12` [B(III)], above 100 µM.
The same measure, in the same setting: the result for `CCCCC(=O)OCOc1cccc2[nH]cc(CCN(C)C)c12` [D(III)] reads above 100 µM; that for `CCCC(=O)OCOc1cccc2[nH]cc(CCN(C)C)c12` [D(IV)], above 100 µM; that for `CC(C)OC(=O)OCOc1cccc2c1c(CCN(C)C)cn2COC(=O)OC(C)C` [D(XIII)], above 100 µM.

The target of the next experiment is HTR1B (5-HTR1B) (Homo sapiens, UniProt P28222). Put plainly: cell-based.
HTR1B (5-HTR1B), sequence (P28222 whole entry): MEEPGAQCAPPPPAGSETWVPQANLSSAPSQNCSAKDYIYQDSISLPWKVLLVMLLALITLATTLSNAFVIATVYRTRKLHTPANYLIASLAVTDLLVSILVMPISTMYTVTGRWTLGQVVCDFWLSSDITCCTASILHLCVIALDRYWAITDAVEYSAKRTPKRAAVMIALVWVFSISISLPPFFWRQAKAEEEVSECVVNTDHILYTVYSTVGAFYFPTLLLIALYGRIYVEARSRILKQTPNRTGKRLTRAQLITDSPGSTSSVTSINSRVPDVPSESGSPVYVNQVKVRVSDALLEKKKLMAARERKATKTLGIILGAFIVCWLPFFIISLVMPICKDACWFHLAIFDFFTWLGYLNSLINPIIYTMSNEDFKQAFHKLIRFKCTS
Details: not given
Turning to `CN(C)CCc1c[nH]c2cccc(OC(=O)OCc3ccccc3)c12` [B(II)], the EC50 worked out at 0.446 µM.
Same read-out and setting: to `CN(C)CCc1c[nH]c2cccc(OP(=O)(Oc3ccccc3)Oc3ccccc3)c12` [F(I)] belongs 0.0549 µM.

The same experiment, now with this note: HTR1B, GPCR, AGN (agonist); read-out: EC50.
For `CN(C)Cc1c[nH]c2cccc(O[Si](C)(C)C(C)(C)C)c12` [A(IV)], the EC50 turned out to be 0.503 µM.
Still for that read-out and setting: the result for `CC(C)[Si](Oc1cccc2[nH]cc(CN(C)C)c12)(C(C)C)C(C)C` [A(V)] reads 1.19 µM.
Still for that read-out and setting: the result for `CN(C)CCc1c[nH]c2cccc(OC(=O)OCC3CC3)c12` [B(III)] reads 0.0618 µM.
Regarding `CCCCC(=O)OCOc1cccc2[nH]cc(CCN(C)C)c12` [D(III)], the EC50 came to 0.279 µM.
On the same count and under the same terms, to `CCCC(=O)OCOc1cccc2[nH]cc(CCN(C)C)c12` [D(IV)] belongs 0.638 µM; to `CC(C)OC(=O)OCOc1cccc2c1c(CCN(C)C)cn2COC(=O)OC(C)C` [D(XIII)], 9.32 µM.

A further experiment deals with T2, CHRM2 (Homo sapiens, UniProt P08172).
T2 sequence (P08172 1-466): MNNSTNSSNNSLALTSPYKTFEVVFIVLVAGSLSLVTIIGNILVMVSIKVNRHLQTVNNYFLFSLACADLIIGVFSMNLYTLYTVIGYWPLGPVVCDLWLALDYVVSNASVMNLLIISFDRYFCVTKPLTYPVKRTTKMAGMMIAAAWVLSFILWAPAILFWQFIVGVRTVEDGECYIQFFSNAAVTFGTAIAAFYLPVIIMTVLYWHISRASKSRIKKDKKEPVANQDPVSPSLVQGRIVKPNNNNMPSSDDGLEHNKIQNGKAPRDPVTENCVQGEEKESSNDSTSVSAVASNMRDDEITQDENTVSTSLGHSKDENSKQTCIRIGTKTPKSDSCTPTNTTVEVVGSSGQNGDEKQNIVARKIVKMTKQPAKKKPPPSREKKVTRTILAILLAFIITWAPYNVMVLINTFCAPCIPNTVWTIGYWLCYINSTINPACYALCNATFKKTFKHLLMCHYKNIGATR
Put plainly: cell-based.
Details: not given
Turning to `CN(C)CCc1c[nH]c2cccc(OC(=O)OCc3ccccc3)c12` [B(II)], the half-maximal inhibitory concentration (IC50) (as a rule, the concentration needed to halve the response being measured) was above 100 µM.
The same measure, in the same setting: to `CN(C)CCc1c[nH]c2cccc(OP(=O)(Oc3ccccc3)Oc3ccccc3)c12` [F(I)] belongs 42.9 µM.

The same experiment, now with this note: CHRM2, GPCR, ANT (antagonist); read-out: IC50.
Turning to `CN(C)Cc1c[nH]c2cccc(O[Si](C)(C)C(C)(C)C)c12` [A(IV)], the 50% inhibitory concentration (IC50) was above 100 µM.
On the same count and under the same terms, to `CC(C)[Si](Oc1cccc2[nH]cc(CN(C)C)c12)(C(C)C)C(C)C` [A(V)] belongs above 100 µM; to `CN(C)CCc1c[nH]c2cccc(OC(=O)OCC3CC3)c12` [B(III)], above 100 µM; to `CCCCC(=O)OCOc1cccc2[nH]cc(CCN(C)C)c12` [D(III)], above 100 µM.
The same measure, in the same setting: to `CCCC(=O)OCOc1cccc2[nH]cc(CCN(C)C)c12` [D(IV)] belongs above 100 µM; to `CC(C)OC(=O)OCOc1cccc2c1c(CCN(C)C)cn2COC(=O)OC(C)C` [D(XIII)], 66.5 µM.

For the origin of these results see patent publication US20250352512A2, “C4-S[…] DERIVATIVES AND METHODS OF USING” (priority 2022, published 2025).
